Results as given in patent US12281225B2, “Process for preparing stable polymers containing vinylimidazole” (BASF SE, priority 2018, dated 2025).

Assays:
[1] = tested on: Bacteria: Escherichia coli, Staphylococcus aureus, Pseudomonas aeruginosa, Pseudomonas putida, Burkholderia cepacia, Alcaligenes faecalis; test: Preservation test with periodic inoculation, bacteria assessment; format: cell-based; settings: Polymer P4; sample stored 60 d at 40° C.
How it was run: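 Polymer samples (25 g) containing preservative were inoculated weekly, four times, with 10^9/ml bacterial or yeast mixtures (0.5 ml). Weekly streaks on agar were scored semiquantitatively (−− to ++) after 3 days at 25 °C, on fresh samples and on samples stored 60 days at 40 °C.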

[2] = Analysis of active substance: preservative concentration before and after storage in VI-containing polymer solution; format: physicochemical; settings: for active-substance concentration, 0 d, RT: before storage; for active-substance concentration, 14 d, 40° C.: storage 14 d at 40° C.; for active-substance concentration, 28 d, 40° C.: storage 28 d at 40° C.; for active-substance concentration, 60 d 40° C.: storage 60 d at 40° C.
How it was run: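 Preservatives (MIT, BIT, CMIT, OIT, DCOIT, iodopropynyl butyl carbamate) in aqueous vinylpyrrolidone–vinylimidazole copolymer solution quantified after dilution by isocratic RP18 chromatography with UV detection, using an acid-methanol eluent.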

[3] = Physical stability; visual assessment (color, turbidity, phase separation); format: physicochemical; set-up: key: ++: no discernible change with respect to color, turbidity or phase separation; +: marginal change in color number, somewhat increased Tyndall effect but no turbidity; 0: easily discernible increase in color number and moderate turbidity−no phase separation; −: turbidity and change in color number readily discernible by visual assessment; −−: strong color change with strong turbidity and incipient phase separation
How it was run: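 Samples were inspected visually for color, turbidity and phase separation and scored on a five-step scale. Scores run from ++ (no discernible change) to −− (strong color change, strong turbidity, incipient phase separation).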

[4] = Iodine color number according to DIN 6162:2014-09; format: physicochemical
[5] = Polymer P5 (HP56) with stabilizer

CCCCCCCCCCCCCCCC[N+](C)(C)Cc1ccccc1.[Cl-] [Polymer 16-BAC, cetylalkonium chloride]
60 d 40° C., bact. assess., 4th inoculation [1]: − (slight growth, max. 100 colonies) | active-substance concentration, 0 d, RT ([2]; in Polymer P1): 1000 ppm | active-substance concentration, 14 d, 40° C. ([2]; in Polymer P1): 960 ppm | active-substance concentration, 28 d, 40° C. ([2]; in Polymer P1): 960 ppm | active-substance concentration, 60 d 40° C. ([2]; in Polymer P1): 940 ppm | active-substance concentration, 0 d, RT ([2]; in Polymer P2): 1000 ppm | active-substance concentration, 14 d, 40° C. ([2]; in Polymer P2): 960 ppm | active-substance concentration, 28 d, 40° C. ([2]; in Polymer P2): 960 ppm | active-substance concentration, 60 d 40° C. ([2]; in Polymer P2): 940 ppm | active-substance concentration, 0 d, RT ([2]; in Polymer P3): 1000 ppm | active-substance concentration, 14 d, 40° C. ([2]; in Polymer P3): 975 ppm | active-substance concentration, 28 d, 40° C. ([2]; in Polymer P3): 968 ppm | active-substance concentration, 60 d 40° C. ([2]; in Polymer P3): 952 ppm | active-substance concentration, 0 d, RT ([2]; in Polymer P4): 1000 ppm | active-substance concentration, 14 d, 40° C. ([2]; in Polymer P4): 964 ppm | active-substance concentration, 28 d, 40° C. ([2]; in Polymer P4): 960 ppm | active-substance concentration, 60 d 40° C. ([2]; in Polymer P4): 944 ppm | active-substance concentration, 0 d, RT ([2]; in Polymer P5 (HP56)): 1000 ppm | active-substance concentration, 14 d, 40° C. ([2]; in Polymer P5 (HP56)): 960 ppm | active-substance concentration, 28 d, 40° C. ([2]; in Polymer P5 (HP56)): 960 ppm | active-substance concentration, 60 d 40° C. ([2]; in Polymer P5 (HP56)): 940 ppm | active-substance concentration, 0 d, RT ([2]; in Polymer P6): 1000 ppm | active-substance concentration, 14 d, 40° C. ([2]; in Polymer P6): 970 ppm | active-substance concentration, 28 d, 40° C. ([2]; in Polymer P6): 961 ppm | active-substance concentration, 60 d 40° C. ([2]; in Polymer P6): 954 ppm | active-substance concentration, 0 d, RT ([2]; in Polymer P7): 1000 ppm | active-substance concentration, 14 d, 40° C. ([2]; in Polymer P7): 975 ppm | active-substance concentration, 28 d, 40° C. ([2]; in Polymer P7): 966 ppm | active-substance concentration, 60 d 40° C. ([2]; in Polymer P7): 953 ppm | active-substance concentration, 0 d, RT ([2]; in Polymer P8): 1000 ppm | active-substance concentration, 14 d, 40° C. ([2]; in Polymer P8): 960 ppm | active-substance concentration, 28 d, 40° C. ([2]; in Polymer P8): 960 ppm | active-substance concentration, 60 d 40° C. ([2]; in Polymer P8): 940 ppm | active-substance concentration, 0 d, RT ([2]; in Polymer P9): 1000 ppm | active-substance concentration, 14 d, 40° C. ([2]; in Polymer P9): 960 ppm | active-substance concentration, 28 d, 40° C. ([2]; in Polymer P9): 960 ppm | active-substance concentration, 60 d 40° C. ([2]; in Polymer P9): 940 ppm | Physical stability, 60 d 40° C.* ([3]; Polymer P1 with stabilizer): + | Physical stability, 60 d 40° C.* ([3]; Polymer P2 with stabilizer): + | Physical stability, 60 d 40° C.* ([3]; Polymer P3 with stabilizer): + | Physical stability, 60 d 40° C.* ([3]; Polymer P4 with stabilizer): + | Physical stability, 60 d 40° C.* [3, 5]: + | Physical stability, 60 d 40° C.* ([3]; Polymer P6 with stabilizer): + | Physical stability, 60 d 40° C.* ([3]; Polymer P7 with stabilizer): + | Physical stability, 60 d 40° C.* ([3]; Polymer P8 with stabilizer): + | Physical stability, 60 d 40° C.* ([3]; Polymer P9 with stabilizer): ++ | Iodine color number, 60 d 40° C. ([4]; Polymer P1 with stabilizer): 2.7 | Iodine color number, start ([4]; Polymer P1 with stabilizer): 2.6 | Iodine color number, 60 d 40° C. ([4]; Polymer P2 with stabilizer): 3.1 | Iodine color number, start ([4]; Polymer P2 with stabilizer): 3.0 | Iodine color number, 60 d 40° C. ([4]; Polymer P3 with stabilizer): 3.3 | Iodine color number, start ([4]; Polymer P3 with stabilizer): 3.1 | Iodine color number, 60 d 40° C. ([4]; Polymer P4 with stabilizer): 3.3 | Iodine color number, start ([4]; Polymer P4 with stabilizer): 3.1 | Iodine color number, 60 d 40° C. [4, 5]: 3.3 | Iodine color number, start [4, 5]: 3.4 | Iodine color number, 60 d 40° C. ([4]; Polymer P6 with stabilizer): 3.5 | Iodine color number, start ([4]; Polymer P6 with stabilizer): 3.4 | Iodine color number, 60 d 40° C. ([4]; Polymer P7 with stabilizer): 3.5 | Iodine color number, start ([4]; Polymer P7 with stabilizer): 3.4 | Iodine color number, 60 d 40° C. ([4]; Polymer P8 with stabilizer): 3.5 | Iodine color number, start ([4]; Polymer P8 with stabilizer): 3.2 | Iodine color number, 60 d 40° C. ([4]; Polymer P9 with stabilizer): 3.9 | Iodine color number, start ([4]; Polymer P9 with stabilizer): 3.7
